Reference: US20100210559A1, “TRAP-14 AS A THERAPEUTIC AGENT” (priority 2007, published 2010)
No end group written: not given here.

Key:
HIV-1IIIB = assay: HIV-1 antiviral assay (CPE reduction, MTS); type: cell-based; details: peptide 10 micrograms per ml, 6 days post-infection
MRSA = details: 5 micrograms per ml
in vitro = details: human, HepG2-2.2.15 cells
Experimental: HepG2-2.2.15 cells were plated in 96-well microtiter plates. After 16-24 hours the confluent monolayer of HepG2-2.2.15 cells was washed and the medium was replaced with complete medium containing test peptide—10 micrograms per ml—in duplicate. […] Three days later the culture medium was replaced with fresh medium containing the peptide. […] A novel dye uptake assay was then employed to measure cell viability, which is used to calculate toxicity (% cell control).

[1] = Cytotoxicity in CEM-SS cells (MTS cell viability); details: human
[2] = Cytotoxicity in MRC-5 cells (CellTiter 96); details: human
Streptococcus pneumoniae = type: cell-based; details: 5 micrograms per ml
Pseudomonas aeruginosa = type: cell-based; details: 5 micrograms per ml

Molecule	% CPE reduction in HIV-1 infected CEM-SS cells (HIV-1IIIB) [%]	% inhibition (MRSA) [%]	viability at 144 h, 10 micrograms per ml (in vitro) [%]	viability at 10 micrograms per ml [1] [%]	viability at 144 h [2] [%]	% inhibition (Streptococcus pneumoniae) [%]	% inhibition (Pseudomonas aeruginosa) [%]
Cc1cn([C@H]2C[C@H](N=[N+]=[N-])[C@@H](CO)O2)c(=O)[nH]c1=O [AZT]	99						
SFLLRNPNDKYEPF-OH [TRAP-14]		0.0	84.5	100	100	0.0	0.0
